According to patent US8114393B2, “Methods and compositions for phosphate binding” (Wisconsin Alumni Research Foundation, priority 2005, dated 2012):

Columns and labels:
[1] = test system: intestinal phosphorus absorption; test: Fecal phosphorus content, increasing dietary levels of DAB-8 hydroacetate for three weeks; format: in vivo, rats
Description: Materials and Methods. Young male Sprague-Dawley rats weighing approximately 90 g were fed a purified diet containing 0.47% calcium and 0.2% inorganic phosphorus, solidified with molten agar, for 5 days. After this acclimation period, the rats were divided into 5 groups by body weight. One group remained on the control diet while the other 4 groups were fed diets containing increasing levels of DAB-8 in the hydroacetate salt form (0.09 to 0.7%). After 1, 2 and 3 weeks on the diets, the rats were moved to metabolic caging and 24 to 48 hour fecal collections were obtained. The feces were dried then ashed in a muffle oven at 700° C. for 24 hours. The resulting ash was dissolved in 6N HCl and the phosphorus content was measured using an in-house colorimetric assay.
Data are expressed as means±SEM. Data were subjected to analysis of variance (ANOVA), and group means compared using Tukey, Scheffe and Fisher's LSD test.
Young rats were either control diet (“0”), or the same diet containing one of four levels of DAB-8 as the hydroacetate for three weeks. Feces were collected from the rats using metabolic housing for 24 to 48 hours at the end of the first (week 1), second (week 2) or third (week 3) weeks. Feces was dried, then ashed in a muffle oven. Resulting ash was dissolved in 6N HCl. Phosphorus content was determined using an in-house colorimetric assay. *Indicates significant difference from control diet with a p-value of […].

[2] = test system: Intestinal Phosphate Absorption; test: Intestinal phosphate absorption: oral 33P dose after gavage of phosphate binder; format: in vivo, rats; settings: 14.4 mg Renagel or 10 mg DAB-8 as acetate or citrate; 10 mM KH2PO4; 60 min
Description: Animals. Male Sprague-Dawley rats (Harlan Sprague-Dawley, Madison, Wis.) weighing approximately 120 grams were used in all experiments.
In experiments to measure ^33P absorption, the rats were fed a laboratory chow diet (Lab Diet 5012, Richmond, Ind.) containing 1% calcium and 0.7% phosphorus ad libitum for less than one week prior to the experiment.
Intestinal Phosphate Absorption. Following an overnight fast, rats were administered 0.5 mL water or an oral phosphate binder dissolved in water via gastric gavage. A second dose of 0.5 mL containing 3 μCi ^33P (as H3PO4, specific activity 155.8 Ci/mg, New England Nuclear/Perkin Elmer, Boston, Mass.) in a 10, 50, or 100 mM KH2PO4 buffer at pH 7.4 was immediately administered via gastric gavage. Rats were killed by CO2 asphyxiation immediately or 60 minutes after the oral dose. The rats killed immediately (labeled “0 min control” in figures) were used to determine if the oral ^33P dose was properly administered and completely recovered.
Blood was collected via heart puncture and centrifuged at 1500×g for 15 minutes at 22° C. to yield serum. A suture was tied to the cranial end of the esophagus to contain liquid inside the stomach. The entire digestive tract was then removed and allowed to dissolve for several days in concentrated HNO3 (approximately 1 mL HNO3 per gram tissue). The exact volume of the dissolved digestive tract was determined by diluting the dissolved tissues to equal volumes with water.
The amount of radioactivity in total body serum and total volume of dissolved tissue was determined following liquid scintillation counting of 50 μL aliquots in triplicate (Tri-Carb Liquid Scintillation Analyzer, Perkin-Elmer/Packard, Boston, Mass.). Total body serum was estimated to be 40 mL serum/kg body weight. (Hawk T et al., 1999, Formulary for laboratory animals, Ames, Iowa: Iowa State University Press.)
Statistical analysis. Data are presented as means±standard error of the means (SEM). Treatment groups were compared by a fully factorial analysis of variance (ANOVA) and means were subjected to Tukey, Scheffe, and Fisher's Least-Significant-Difference (LSD) tests (Systat 5.2.1, Systat Software, Inc., Point Richmond, Calif.). Differences were considered significant if at least two of the tests detected significance with a p-value <0.05, unless specified otherwise.
Materials and Methods. The relevant materials and methods were the same as set forth above except that instead of using “0.5 mL of water or 39.5 mg calcium acetate, 14.4 mg RENAGEL, or up to 132.8 mg of test dendrimer,” the following was used “0.5 mL of water, 14.4 mg RENAGEL or 10 mg DAB-8 as the hydroacetate or hydrocitrate form dissolved in water.”

Polypropylenimine octaamine Dendrimer decahydroacetate [DAB-8 as acetate]
fecal phosphorus content versus control diet, first 2 weeks on the diet ([1]; all four levels of the phosphate binder (0.09 to 0.7%)): significant increase
fecal phosphorus output ([1]; daily consumption, 0.09 to 0.7% of diet): dose-dependent increase
dietary phosphorus absorption in vivo ([1]; inferred from fecal phosphorus, 0.09 to 0.7% of diet): dose-dependent reduction
fecal phosphorus content versus control diet, week 3 ([1]; only the highest dietary level): retains significance
33P in the serum compared with vehicle pretreatment (FIG. 26) [2]: significantly less
33P retained in the gut compared with vehicle pretreatment (FIG. 25) [2]: significantly more
